Reference: publication PMC9967275, “Screening the Pathogen Box to Discover and Characterize New Cruzain and TbrCatL Inhibitors” (Pathogens, 2023)
Read-outs that look alike come from different tables or passages of the source.

How the values were obtained:
cruzain = cruzain (Trypanosoma cruzi, UniProt P25779); experiment: biochemical;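 for Cruzain 0’ Inhibition: at 5 µM compound concentration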;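 for Cruzain 10’ Inhibition: at 5 µM compound concentration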;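 for Cruzain Inhibition 0’: at 5 µM compound concentration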;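 for Cruzain Inhibition 10’: at 5 µM compound concentration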
Method in brief: (§1)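 Recombinant enzymes assayed by Z-Phe-Arg-AMC cleavage at 25 °C, fluorescence 340/440 nm over 5–7 min, with 10 min or no enzyme–compound preincubation.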

TbrCatL = molecular target: T1, TbrCatL (Trypanosoma brucei rhodesiense, UniProt Q95PM0); experiment: TbrCatL enzymatic inhibition assay (cleavage of fluorogenic substrate Z-FR-AMC); format: biochemical; settings: for TbrCatL 0’ Inhibition / TbrCatL 10’ Inhibition: sheet "Screening results";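 for TbrCatL 0’ Inhibition: at 5 µM compound concentration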;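 for TbrCatL 10’ Inhibition: at 5 µM compound concentration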;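 for TbrCatL Inhibition 0’: at 5 µM compound concentration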;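 for TbrCatL Inhibition 10’: at 5 µM compound concentration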
T1 construct: Conor Caffrey (University of California San Diego)
Method in brief: as §1

[1] = 0’ (pre-incubation time), sheet "Screening results"
[2] = 10’ (pre-incubation time), sheet "Screening results"
[3] = 0’ (no pre-incubation), sheet Screening results
[4] = 10’ (pre-incubation), sheet Screening results
[5] = 0’ (pre-incubation time), Pathogen Box screening results
[6] = 10’ (pre-incubation time), Pathogen Box screening results

Chain of cruzain (P25779 123-337 limits assumed): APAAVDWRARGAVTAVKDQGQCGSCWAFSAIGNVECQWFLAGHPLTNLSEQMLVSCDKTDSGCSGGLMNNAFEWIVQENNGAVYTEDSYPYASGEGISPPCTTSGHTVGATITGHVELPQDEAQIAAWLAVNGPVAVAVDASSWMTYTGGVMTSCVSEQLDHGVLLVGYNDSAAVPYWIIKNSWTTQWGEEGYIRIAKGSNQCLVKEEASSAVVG
T1 sequence (Q95PM0 entry or part of it): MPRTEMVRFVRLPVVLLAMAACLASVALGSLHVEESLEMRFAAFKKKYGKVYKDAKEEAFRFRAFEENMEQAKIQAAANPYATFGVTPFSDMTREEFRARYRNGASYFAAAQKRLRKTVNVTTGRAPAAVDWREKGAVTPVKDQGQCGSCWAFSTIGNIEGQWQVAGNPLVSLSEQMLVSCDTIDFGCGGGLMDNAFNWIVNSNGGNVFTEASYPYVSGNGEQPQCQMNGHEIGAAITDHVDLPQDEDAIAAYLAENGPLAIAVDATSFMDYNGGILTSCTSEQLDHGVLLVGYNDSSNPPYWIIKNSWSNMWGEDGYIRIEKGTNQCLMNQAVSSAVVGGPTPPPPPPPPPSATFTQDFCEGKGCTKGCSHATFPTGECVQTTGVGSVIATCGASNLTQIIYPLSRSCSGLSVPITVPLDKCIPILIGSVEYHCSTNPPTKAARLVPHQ

Cc1nc(-c2ccccn2)nc(NCCc2ccc(S(C)(=O)=O)cc2)c1Cl [MMV658993]
Cruzain 0’ Inhibition (cruzain; [1]): -6.4% | Cruzain 10’ Inhibition (cruzain; [2]): 9% | TbrCatL 0’ Inhibition (TbrCatL; 0’ (pre-incubation time)): -11% | TbrCatL 10’ Inhibition (TbrCatL; 10’ (pre-incubation time)): -12%

O=C(NC1CC1)c1ccc(N2CCC(Cc3ccccc3)CC2)nc1 [MMV024397]
Cruzain Inhibition 0’ (cruzain; [3]): 3% | Cruzain Inhibition 10’ (cruzain; [4]): 6% | TbrCatL Inhibition 0’ (TbrCatL; [3]): 2.6% | TbrCatL Inhibition 10’ (TbrCatL; [4]): 2.6%

CN1CCN(S(=O)(=O)c2ccc(-c3ccc4c(Nc5ncc(Cl)cn5)ccnc4c3)cc2)CC1 [MMV688283]
Cruzain Inhibition 0’ (cruzain; [3]): 30% | Cruzain Inhibition 10’ (cruzain; [4]): 31% | TbrCatL Inhibition 0’ (TbrCatL; [3]): 24% | TbrCatL Inhibition 10’ (TbrCatL; [4]): 18%

NCCC[C@@](N)(C(=O)O)C(F)F [MMV001625]
Cruzain Inhibition 0’ (cruzain; [3]): 20% | Cruzain Inhibition 10’ (cruzain; [4]): 7% | TbrCatL Inhibition 0’ (TbrCatL; [3]): 2% | TbrCatL Inhibition 10’ (TbrCatL; [4]): -1.9%

Cc1[nH]c2cc(F)cc(F)c2c(=O)c1-c1ccc(Oc2ccc(OC(F)(F)F)cc2)cc1 [MMV671636]
Cruzain 0’ Inhibition (cruzain; [1]): 8% | Cruzain 10’ Inhibition (cruzain; [2]): 17% | TbrCatL 0’ Inhibition (TbrCatL; 0’ (pre-incubation time)): 10% | TbrCatL 10’ Inhibition (TbrCatL; 10’ (pre-incubation time)): 6.6%

Cc1ccc(-c2cc(C(=O)Nc3cccnc3)c3cc(Br)ccc3n2)cc1 [MMV016838]
Cruzain Inhibition 0’ (cruzain; [5]): 4.3% | Cruzain Inhibition 10’ (cruzain; [6]): 7.6% | TbrCatL Inhibition 0’ (TbrCatL; [5]): 1.7% | TbrCatL Inhibition 10’ (TbrCatL; [6]): 0.3%

CC(=O)Oc1ccccc1C(=O)Nc1ncc([N+](=O)[O-])s1 [MMV688991]
Cruzain Inhibition 0’ (cruzain; [3]): 8% | Cruzain Inhibition 10’ (cruzain; [4]): 4% | TbrCatL Inhibition 0’ (TbrCatL; [3]): 10% | TbrCatL Inhibition 10’ (TbrCatL; [4]): 3.7%

O=C(NC1CC1)c1ccc(CSCc2ccccc2Cl)o1 [MMV007803]
Cruzain 0’ Inhibition (cruzain; [1]): 0.3% | Cruzain 10’ Inhibition (cruzain; [2]): -1.7% | TbrCatL 0’ Inhibition (TbrCatL; 0’ (pre-incubation time)): -6.5% | TbrCatL 10’ Inhibition (TbrCatL; 10’ (pre-incubation time)): -0.2%

CNc1nnc(Sc2cnn(-c3ccccc3)c(=O)c2Cl)s1 [MMV688763]
Cruzain Inhibition 0’ (cruzain; [3]): 6% | Cruzain Inhibition 10’ (cruzain; [4]): 9% | TbrCatL Inhibition 0’ (TbrCatL; [3]): 7.5% | TbrCatL Inhibition 10’ (TbrCatL; [4]): 1.7%

Cc1nn(C(=O)Nc2cccc(C(F)(F)F)c2)c(C)c1Sc1ncccn1 [MMV688552]
Cruzain Inhibition 0’ (cruzain; [5]): 2.3% | Cruzain Inhibition 10’ (cruzain; [6]): 0.1% | TbrCatL Inhibition 0’ (TbrCatL; [5]): -0.1% | TbrCatL Inhibition 10’ (TbrCatL; [6]): 5%

CCN(CC)C(=O)N1CCN(C)CC1 [MMV002816]
Cruzain 0’ Inhibition (cruzain; [1]): 2.5% | Cruzain 10’ Inhibition (cruzain; [2]): 1.9% | TbrCatL 0’ Inhibition (TbrCatL; 0’ (pre-incubation time)): -0.5% | TbrCatL 10’ Inhibition (TbrCatL; 10’ (pre-incubation time)): 0.1%

CC1=Nc2ccc(Cl)cc2C(O)(c2ccc(C)cc2)N1CCN1CCCCC1 (centres unmarked) [MMV688279]
Cruzain 0’ Inhibition (cruzain; [1]): -4.5% | Cruzain 10’ Inhibition (cruzain; [2]): 0.1% | TbrCatL 0’ Inhibition (TbrCatL; 0’ (pre-incubation time)): -3% | TbrCatL 10’ Inhibition (TbrCatL; 10’ (pre-incubation time)): -5%

Cc1ccc(Oc2ccc(NC(=O)CNc3ccccc3N3CCCC3=O)cc2)cc1 [MMV020512]
Cruzain Inhibition 0’ (cruzain; [3]): 0.2% | Cruzain Inhibition 10’ (cruzain; [4]): 8% | TbrCatL Inhibition 0’ (TbrCatL; [3]): -3.2% | TbrCatL Inhibition 10’ (TbrCatL; [4]): -0.2%

CC(C)(C(=O)Nc1ccc(F)cc1)n1cc(-c2ccccc2F)cn1 [MMV687239]
Cruzain Inhibition 0’ (cruzain; [3]): 7% | Cruzain Inhibition 10’ (cruzain; [4]): -3% | TbrCatL Inhibition 0’ (TbrCatL; [3]): 1.1% | TbrCatL Inhibition 10’ (TbrCatL; [4]): -6%

COc1ccccc1CNC(=O)c1cc(C2CC2)nc2c1cnn2C(C)C [MMV020517]
Cruzain Inhibition 0’ (cruzain; [3]): 4% | Cruzain Inhibition 10’ (cruzain; [4]): 7% | TbrCatL Inhibition 0’ (TbrCatL; [3]): 2.7% | TbrCatL Inhibition 10’ (TbrCatL; [4]): 9%

O=C(NCCc1c[nH]c2ccccc12)c1cc2ccccc2oc1=O [MMV676539]
Cruzain Inhibition 0’ (cruzain; [3]): 14% | Cruzain Inhibition 10’ (cruzain; [4]): 14% | TbrCatL Inhibition 0’ (TbrCatL; [3]): 10% | TbrCatL Inhibition 10’ (TbrCatL; [4]): 20%

COC(=O)C1=C(C)NC(C)=C(C(=O)OC(C)C)[C@H]1c1cccc2nonc12 [MMV001493]
Cruzain Inhibition 0’ (cruzain; [3]): 26% | Cruzain Inhibition 10’ (cruzain; [4]): 12% | TbrCatL Inhibition 0’ (TbrCatL; [3]): 1.3% | TbrCatL Inhibition 10’ (TbrCatL; [4]): -2.4%

O=C(c1n[nH]c2c1CCCC2)N1CCN(Cc2ccc3c(c2)OCO3)CC1 [MMV676389]
Cruzain Inhibition 0’ (cruzain; [3]): -6% | Cruzain Inhibition 10’ (cruzain; [4]): -3.4% | TbrCatL Inhibition 0’ (TbrCatL; [3]): -12% | TbrCatL Inhibition 10’ (TbrCatL; [4]): -7%

FC(F)(F)c1cnc(Sc2nnc(-c3ccncc3)o2)c(Cl)c1 [MMV011765]
Cruzain 0’ Inhibition (cruzain; [1]): 0.7% | Cruzain 10’ Inhibition (cruzain; [2]): -0.5% | TbrCatL 0’ Inhibition (TbrCatL; 0’ (pre-incubation time)): -4% | TbrCatL 10’ Inhibition (TbrCatL; 10’ (pre-incubation time)): -1.2%

COc1ccc(C2(C(=O)Nc3ccc(Br)cc3)CCCC2)cc1 [MMV200748]
Cruzain 0’ Inhibition (cruzain; [1]): 3.8% | Cruzain 10’ Inhibition (cruzain; [2]): 4% | TbrCatL 0’ Inhibition (TbrCatL; 0’ (pre-incubation time)): -2.7% | TbrCatL 10’ Inhibition (TbrCatL; 10’ (pre-incubation time)): -3%

O=C([C@@H](c1ccc(Cl)cc1)c1cccnc1)N1CCN(c2ccc(C(F)(F)F)cc2)CC1 [MMV689244]
Cruzain 0’ Inhibition (cruzain; [1]): 2.7% | Cruzain 10’ Inhibition (cruzain; [2]): -3.2% | TbrCatL 0’ Inhibition (TbrCatL; 0’ (pre-incubation time)): 6.4% | TbrCatL 10’ Inhibition (TbrCatL; 10’ (pre-incubation time)): -2.8%

Cc1noc(C)c1C(=O)N1CCCC(c2[nH]c3c(C)cccc3c2-c2ccncc2)C1 (centres unmarked) [MMV020623]
Cruzain Inhibition 0’ (cruzain; [3]): 0.3% | Cruzain Inhibition 10’ (cruzain; [4]): 5% | TbrCatL Inhibition 0’ (TbrCatL; [3]): -5.6% | TbrCatL Inhibition 10’ (TbrCatL; [4]): 4%

Nc1ncnc2n[nH]c(Cc3cccc4ccccc34)c12 [MMV688469]
Cruzain 0’ Inhibition (cruzain; [1]): -9% | Cruzain 10’ Inhibition (cruzain; [2]): 4.5% | TbrCatL 0’ Inhibition (TbrCatL; 0’ (pre-incubation time)): -8% | TbrCatL 10’ Inhibition (TbrCatL; 10’ (pre-incubation time)): -1.7%

O=C(C1CCCCC1)N1CC(=O)N2CCc3ccccc3[C@@H]2C1 [MMV002529]
Cruzain Inhibition 0’ (cruzain; [3]): 22% | Cruzain Inhibition 10’ (cruzain; [4]): 18% | TbrCatL Inhibition 0’ (TbrCatL; [3]): 5% | TbrCatL Inhibition 10’ (TbrCatL; [4]): 5.7%

COc1cccc2c(C)nc(N=C(N)N)nc12 [MMV000907]
Cruzain Inhibition 0’ (cruzain; [3]): 9.5% | Cruzain Inhibition 10’ (cruzain; [4]): 25% | TbrCatL Inhibition 0’ (TbrCatL; [3]): 32% | TbrCatL Inhibition 10’ (TbrCatL; [4]): 23%

NCCC(O)C(=O)N[C@@H]1C[C@H](N)[C@@H](OC2O[C@H](CN)[C@@H](O)[C@H](O)[C@H]2O)[C@H](O)C1OC1O[C@H](CO)[C@@H](O)[C@H](N)[C@H]1O (some centres unmarked) [MMV687796]
Cruzain Inhibition 0’ (cruzain; [5]): -0.8% | Cruzain Inhibition 10’ (cruzain; [6]): -3.6% | TbrCatL Inhibition 0’ (TbrCatL; [5]): -9.5% | TbrCatL Inhibition 10’ (TbrCatL; [6]): -6%

CCn1cnc2c(Nc3cc(F)cc(F)c3)nc(C#N)nc21 [MMV676881, reference compound]
inhibition at 5 µM (cruzain; read-out: Cruzain 0’ Inhibition, 0’ (pre-incubation time), sheet "Screening results"): 108% | inhibition at 5 µM (cruzain; read-out: Cruzain 10’ Inhibition, 10’ (pre-incubation time), sheet "Screening results"): 108% | inhibition at 5 µM (cruzain; read-out: Inhibition at 5 µM (Mean ± SEM %) Cruzain 0′, 5 µM, no pre-incubation, initial screening): 100 ± 2% | inhibition at 5 µM (cruzain; read-out: Inhibition at 5 µM (Mean ± SEM %) Cruzain 10′ inc, 5 µM, 10′ pre-incubation, initial screening): 100 ± 1% | inhibition at 5 µM (cruzain; read-out: Inhibition of cruzain or TbrCatL (either enzyme) in the initial screening, 5 µM, either cruzain or TbrCatL, with or without pre-incubation): ≥ 60% | Inhibition at 5 µM (Mean ± SEM %) TbrCatL 10′ inc (TbrCatL; 5 µM, 10′ pre-incubation, initial screening): fully inhibited | Inhibition at 5 µM (Mean ± SEM %) TbrCatL 0′ (TbrCatL; 5 µM, no pre-incubation, initial screening): fully inhibited | inhibition at 5 µM (TbrCatL; read-out: Inhibition at 5 µM (Mean ± SEM %) TbrCatL 0′): 100% | inhibition at 5 µM (TbrCatL; read-out: Inhibition at 5 µM (Mean ± SEM %) TbrCatL 10′ inc): 100 ± 2% | inhibition at 5 µM (TbrCatL; read-out: TbrCatL 0’ Inhibition): 104% | inhibition at 5 µM (TbrCatL; read-out: TbrCatL 10’ Inhibition): 103%

Cc1nc2ccccn2c1C(=O)NCc1ccc(Cl)cc1 [MMV012074]
Cruzain Inhibition 0’ (cruzain; [3]): 25% | Cruzain Inhibition 10’ (cruzain; [4]): 12% | TbrCatL Inhibition 0’ (TbrCatL; [3]): -0.2% | TbrCatL Inhibition 10’ (TbrCatL; [4]): 5.6%

CC(C(=O)N1CCCC1)N1CCN(S(=O)(=O)c2ccc(C(C)(C)C)cc2)CC1 (centres unmarked) [MMV020291]
Cruzain 0’ Inhibition (cruzain; [1]): 2.5% | Cruzain 10’ Inhibition (cruzain; [2]): 6% | TbrCatL 0’ Inhibition (TbrCatL; 0’ (pre-incubation time)): 4.3% | TbrCatL 10’ Inhibition (TbrCatL; 10’ (pre-incubation time)): 8%

NC(CC(=O)c1ccc(Cl)cc1Cl)C(Cl)(Cl)Cl (centres unmarked) [MMV676468]
Cruzain 0’ Inhibition (cruzain; [1]): 2.5% | Cruzain 10’ Inhibition (cruzain; [2]): 0.4% | TbrCatL 0’ Inhibition (TbrCatL; 0’ (pre-incubation time)): -5% | TbrCatL 10’ Inhibition (TbrCatL; 10’ (pre-incubation time)): -2%

CCOc1ccc2cc(-c3nn(CC4CCN(C)CC4)c4ncnc(N)c34)ccc2c1 [MMV688854]
Cruzain Inhibition 0’ (cruzain; [3]): 27% | Cruzain Inhibition 10’ (cruzain; [4]): 11% | TbrCatL Inhibition 0’ (TbrCatL; [3]): 2.7% | TbrCatL Inhibition 10’ (TbrCatL; [4]): -5%
